Columns and labels:
Assay in all cases: relative viability (nuclei count vs DMSO), 5 days (fraction); higher = more cells survive
Decitabine + Alpelisib = compound: Nc1ncn([C@H]2C[C@H](O)[C@@H](CO)O2)c(=O)n1 [Decitabine] + Cc1nc(NC(=O)N2CCC[C@H]2C(N)=O)sc1-c1ccnc(C(C)(C)C(F)(F)F)c1 [Alpelisib] (partner 2 µM)
Method in brief: (§1)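 Five library-drug doses in √10 steps were combined with a fixed anchor-drug dose, or a single drug was given alone, by pin tool to lung cancer cell lines in 1536-well plates the day after seeding. Nuclei were stained and counted after 5 days. Relative viability is the nuclei count in treated wells over that in vehicle wells, taken as the median of duplicate plates.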

Cediranib + Alpelisib = compound: COc1cc2c(Oc3ccc4[nH]c(C)cc4c3F)ncnc2cc1OCCCN1CCCC1 [Cediranib] + Cc1nc(NC(=O)N2CCC[C@H]2C(N)=O)sc1-c1ccnc(C(C)(C)C(F)(F)F)c1 [Alpelisib] (partner 2 µM)
Method in brief: as §1

Decitabine + Foretinib = compound: Nc1ncn([C@H]2C[C@H](O)[C@@H](CO)O2)c(=O)n1 [Decitabine] + COc1cc2c(Oc3ccc(NC(=O)C4(C(=O)Nc5ccc(F)cc5)CC4)cc3F)ccnc2cc1OCCCN1CCOCC1 [Foretinib] (partner 0.25 µM)
Method in brief: as §1

[1] = compound: O=C(C[C@H]1NCCC[C@@H]1O)Cn1cnc2cc(Br)c(Cl)cc2c1=O (racemic) [Halofuginone] + Nc1ncn([C@H]2C[C@H](O)[C@@H](CO)O2)c(=O)n1 [Decitabine] (partner 2 µM)
Method in brief: as §1

Cell Line	relative viability (Decitabine + Alpelisib; first compound 0.04 µM)	relative viability (Decitabine + Alpelisib; first compound 0.1265 µM)	relative viability (Decitabine + Alpelisib; first compound 0.4 µM)	relative viability (Decitabine + Alpelisib; first compound 1.265 µM)	relative viability (Decitabine + Alpelisib; first compound 4 µM)	relative viability (Cediranib + Alpelisib; first compound 0.04 µM)	relative viability (Cediranib + Alpelisib; first compound 0.1265 µM)	relative viability (Cediranib + Alpelisib; first compound 0.4 µM)	relative viability (Cediranib + Alpelisib; first compound 1.265 µM)	relative viability (Cediranib + Alpelisib; first compound 4 µM)	relative viability (Decitabine + Foretinib; first compound 0.04 µM)	relative viability (Decitabine + Foretinib; first compound 0.1265 µM)	relative viability (Decitabine + Foretinib; first compound 0.4 µM)	relative viability (Decitabine + Foretinib; first compound 1.265 µM)	relative viability (Decitabine + Foretinib; first compound 4 µM)	relative viability ([1]; first compound 0.001 µM)	relative viability ([1]; first compound 0.003162 µM)	relative viability ([1]; first compound 0.01 µM)	relative viability ([1]; first compound 0.03162 µM)	relative viability ([1]; first compound 0.1 µM)
HCC-78	0.324	0.293	0.285	0.204	0.247	0.361	0.379	0.323	0.386	0.287	0.648	0.58	0.588	0.455	0.433	0.688	0.678	0.667	0.69	0.714
HCC-366	0.455	0.597	0.31	0.133	0.0897	0.402	0.316	0.363	0.401	0.388	0.825	0.743	0.448	0.211	0.128	0.385	0.418	0.339	0.373	0.336
HCC-827	–	0.426	0.356	0.279	0.311	1.06	–	0.957	0.985	0.926	0.351	0.383	0.333	0.3	0.279	0.332	0.282	0.207	0.295	0.308
HOP-62	0.652	0.323	0.152	0.124	0.125	1.16	–	0.74	0.96	1.18	0.773	0.53	0.315	0.197	0.218	0.233	0.224	0.194	0.206	0.199
IA-LM	0.464	0.406	0.297	0.207	0.152	0.845	0.959	0.928	0.592	0.655	0.543	0.502	0.282	0.204	0.108	–	–	–	–	–
LC-2-ad	0.726	0.742	0.681	0.378	0.304	0.994	0.97	0.809	0.86	0.635	0.68	0.889	0.794	0.557	0.516	0.7	0.857	0.806	0.892	0.687
LCLC-97TM1	0.172	0.151	0.14	0.129	0.112	0.235	–	0.25	0.237	0.199	0.583	0.728	0.418	0.256	0.177	0.263	0.222	0.203	0.19	0.227
LCLC-103H	0.888	0.958	0.487	0.858	0.64	1.03	1.08	0.98	0.932	0.917	0.945	0.807	0.717	0.636	0.519	0.773	0.78	0.735	0.711	0.728
LK-2	–	0.986	0.73	0.553	0.504	1.36	1.01	1.13	1.11	0.475	1.45	1.38	0.849	0.39	0.381	0.309	0.261	0.337	0.328	0.286
LOU-NH91	0.484	0.673	0.688	0.592	0.61	0.702	0.952	0.695	0.672	0.615	0.56	0.913	0.726	0.739	0.756	0.809	0.818	0.787	0.802	0.817
NCI-H522	–	–	–	–	–	–	–	–	–	–	–	–	–	–	–	0.735	0.673	0.871	0.753	0.717
NCI-H1299	1.07	1.07	0.985	0.904	0.899	1.09	1.03	1.01	1.04	1.14	1.09	1.13	1.03	1.03	1.01	–	–	–	–	–
NCI-H1563	1.06	0.965	1.02	0.97	0.824	0.988	0.898	0.967	0.949	0.761	0.984	0.886	1.14	0.949	0.917	–	–	–	–	–
NCI-H1623	–	–	–	–	–	–	–	–	–	–	0.706	0.822	0.657	0.53	0.549	–	–	–	–	–
NCI-H1648	–	–	–	–	–	–	–	–	–	–	–	–	–	–	–	0.518	0.525	0.512	0.559	0.506
NCI-H1650	–	–	–	–	–	–	–	–	–	–	0.903	0.855	0.553	0.512	0.301	0.468	0.5	0.439	0.491	0.369
NCI-H1703	0.248	0.27	0.259	0.246	0.195	0.264	0.337	0.218	0.205	0.169	0.371	0.341	0.455	0.377	0.271	–	–	–	–	–
NCI-H1792	0.619	0.765	0.724	0.383	0.323	0.762	0.939	0.648	0.718	0.589	–	–	–	–	–	0.652	0.609	0.529	0.541	0.186
NCI-H2228	0.479	0.41	0.453	0.298	0.201	0.955	0.85	0.791	0.929	0.826	0.593	0.532	0.352	0.273	0.207	–	–	–	–	–
NCI-H2342	–	–	–	–	–	–	–	–	–	–	1.29	1.03	1.1	0.674	0.568	0.664	0.724	0.722	0.671	0.685
SW 900	–	–	–	–	–	–	–	–	–	–	0.489	0.305	0.206	0.167	0.202	0.484	0.418	–	0.443	0.358
